Results reported in patent US20170072007A1, “PHANTOM PHENOMENA TREATMENT” (OTOLANUM AG, priority 2005, published 2017).
“Also recorded” adds a separate entry of the source. Where two headings read alike, the source gives them in different places.

Key:
[1] = test system: BDNF exon IV expression in cochlear neurons; experiment: Salicylate-induced acute tinnitus: effect of test substance on BDNF/c-fos expression in cochlear neurons (RT-PCR); format: in vivo, rat
[2] = test system: Arc expression in auditory cortex; experiment: Salicylate-induced acute tinnitus: effect of test substance on gene expression in the auditory cortex (RT-PCR); format: in vivo, rat; conditions: systemic 0.5 mg/kg, 2.5 hours after 350 mg/kg salicylate, n=12, p<0.05
Experimental: Rnase H reverse transcriptase according to the Invitrogen protocol.
Two and half hours after the induction of acute tinnitus by injection of 350 mg/kg salicylate, the animals received systemic administration of midazolam (Dormicum, Roche, Grenzach-Wyhlen, Germany) (0.5 mg/kg of body weight), and gene expression was investigated after removal of organs with the aid of RT-PCR. […] Statistical analysis was carried out with Student's T test; *=p<0.05.
In a further experiment corresponding to the above, a GABA receptor agonist was administered, under conditions which were otherwise identical, not systemically but locally into the niche of the round window.

[3] = before and 20 hours after local salicylate, 5 μl, 70 mg/kg, n=5
Source text: Adult female Wistar rats weighing between 280 and 300 grams were used for the experiments. The treatment and handling of these animals took place in conformity with the institutional guidelines of Tübingen University, Tierforschungsanstalt.
(§1) The rats were anesthetized intraperitoneally by the method of Guitton, M. J. et al. (2003), Salicylate induces tinnitus through activation of cochlear NMDA receptors, J. Neurosci. 23, pages 3944 to 3952, in order to place a so-called gel foam (Gelita Tampon; B. Braun Medical, Melsungen, Germany) over the round window of both ears. The gel foam was impregnated as indicated with salicylate, which was diluted in artificial perilymph solution (70 mg/ml), or with the corresponding volume of artificial perilymph alone. The gel foam was in the niche of the round window as described; Guitton J. et al. (loc. cit.). The salicylate was locally administered thus for 20 hours. After this time, the animals were sacrificed and the cochlea and the auditory cortex were removed.
The anesthesia of the animals and the ABR screening was carried out as described previously; cf. Knipper, M. et al. (2000), loc. cit.; Schimmang, T. et al. (2003), Lack of BDNF and trkB signalling in the postnatal cochlea leads to a spatial reshaping of innervation along the tonotopic axis and hearing loss, Development 130, pages 4741 to 4750. […]

[4] = test system: c-fos, BDNF exon-III and BDNF exon IV in cochlear spiral ganglia; conditions: local 5 μl 70 mg/ml and systemic 350 mg/kg, versus artificial perilymph
Experimental: Carbon dioxide was used for deep anesthesia of the animals, which were then decapitated. The cochleae were isolated and prepared as described previously; cf. […] Briefly, the cochleae were fixed by immersion in 2% paraformaldehyde, 125 mM sucrose in 100 mM phosphate-buffered saline (PBS), pH 7.4, for two hours and, following the fixation, decalcified in rapid bond decalcifier (#904687, Eurobio, Fisher-Scientific, 61130 Nidderau, Germany) for 45 minutes, subsequently followed by incubation in 25% sucrose, 1 mM protease inhibitor (Pefabloc, Roche) in Hanks buffered saline overnight. Following the overnight incubation, the cochleae were embedded in O.C.T. compound (Miles Laboratories, Elkhart, Ind., USA). The tissues were then cryosectioned with a thickness of 10 μm for the in situ hybridization, stored on SuperFrost*/plus slides and stored at −20° C. before use.
Genomic DNA from rat liver tissue was isolated using the Easy DNA kit from Invitrogen in accordance with the manufacturer's information. A polymerase chain reaction was carried out in order to amplify all four non-coding 5′ exons of the BDNF gene.
In the PCR reaction, the genomic DNA was first denatured at 94° C. for four minutes, followed by 30 cycles of one minute at 94° C., one minute at 55° C. and one minute at 72° C. The extension reaction was carried out at 70° C. for 10 minutes. […]

[5] = test system: c-fos, BDNF exon-III and BDNF exon IV transcripts in cochlear tissue
Experimental: as §1

[6] = test system: c-fos, BDNF exon-III, BDNF exon-IV and Arc in auditory cortex
Experimental: Total RNA was isolated using the total RNeasy kit from Qiagen both from the cochlea and from brain tissue and was treated with DNase (Ambion) in order to remove DNA contaminants. The RNA was then purified and the concentration was determined by spectrometric measurements. Reverse transcription of the brain tissue was carried out in a reaction volume of 20 μl using 1 μg of total RNA as template and [sequence] II Rnase H reverse transcriptase according to the Invitrogen protocol. Because of the limited amount of RNA in the cochlear tissues, Qiagen Senscript reverse transcriptase was used, as described in the Qiagen protocol, using 50 ng of total RNA as template. The number of cycles and the annealing temperature for the PCR was optimized so that the signals obtained for BDNF, c-fos and glyceraldehyde-3-phosphate dehydrogenase (GAPDH) were not saturated.
The PCR was carried out in a final reaction volume of 25 μl, using both primers for GAPDH and the activity-dependent genes simultaneously. In this duplex PCR reaction, a housekeeping gene in the same PCR reaction represents an internal control, so that the intensity of the activity-dependent gene can be compared unambiguously with the control and the treated samples. PCR ready-to-go beads from Amersham Pharmacia were used in order to ensure a standardization of the PCR conditions and to reduce contamination during pipetting. Finally, the PCR products were analyzed in a 2% agarose gel which was visualized using an ethidium bromide stain and densitometric analysis using an Alpha Imager 2200 from Biometra. The intensity of the amplified activity-dependent gene was normalized for each reaction to the level of the coamplified GAPDH. The amplification conditions for arc, BDNF, c-fos and GAPDH were for the initial denaturation phase of 94° C. for three minutes, 30 cycles each of one minute of denaturation (94° C.), one minute of annealing (54° C.), 1.5 minutes of extension (72° C.) and a final extension phase of ten minutes at 72° C.
The auditory cortices investigated were obtained from animals in which the cochlea were investigated for the dose-dependent effect of salicylate, the mRNA was isolated and an RT-PCR was carried out as described under Material and Methods.

[7] = increasing amounts of salicylate locally into round window niche, n=3

Structure (SMILES): COC(=O)C1=C(C)NC(C)=C(C(=O)OC(C)C)C1c1cccc2nonc12 (centres unmarked) [isradipine]
- salicylate-induced upregulation of BDNF (exon IV) in cochlear neurons ([1]; 10 μl of 10 mM solution locally at round window 22 hours before tissue removal, salicylate 350 mg/kg systemic 3 hours before): inhibited

Structure (SMILES): Cc1ncc2n1-c1ccc(Cl)cc1C(c1ccccc1F)=NC2 [midazolam]
- effect of salicylate on the expression of BDNF exon-IV in cochlear neurons ([1]; systemic 0.5 mg/kg, 2.5 hours after 350 mg/kg salicylate, n=7, p<0.05): significant reduction; also recorded: significantly reduced; also recorded: inhibited
- effect on salicylate-changed expression of c-fos ([1]; systemic 0.5 mg/kg, 2.5 hours after 350 mg/kg salicylate, n=7 to 12): remains incapable of being influenced
- effect of salicylate on the expression of Arc in the auditory cortex [2]: significant reduction

Structure (SMILES): O=C(O)c1ccccc1O [salicylate]
- frequency-specific ABR screening [3]: no loss of hearing
- hybridization signals for c-fos, BDNF exon-III and BDNF exon IV in the middle basal cochlear turn [4]: significantly increased
- increase in the expression of BDNF exon-IV (densitometric analysis) ([5]; cochlea, n=8, p<0.05): 49±12%
- increase in the expression of c-fos (densitometric analysis) ([5]; cochlea, n=8, p<0.05): 69±11%
- c-fos expression in cochlear tissue ([5]; gel foam local, 5 μl, 70 mg/ml, found at 20 hours, not at three hours): significant upregulation
- expression of the BDNF exon-IV transcript in cochlear neurons [5, 7]: increased
- expression of BDNF exon-IV and c-fos in cochlear neurons ([5]; systemic 350 mg/kg salicylate): elevated expression
- c-fos expression in cochlear tissue ([5]; systemic i.p. 350 mg/kg of body weight, after three hours): upregulation
- decrease in the expression of BDNF exon-IV (densitometric analysis) ([6]; auditory cortex, n=8, p<0.05): 49±12%
- decrease in the expression of c-fos (densitometric analysis) ([6]; auditory cortex, n=8, p<0.05): 69±11%
- expression of Arc in the auditory cortex [6, 7]: decreased
- expression of c-fos, BDNF exon-III and BDNF exon-IV in the auditory cortex ([6]; local administration, all dosages of salicylate): reduction
- expression of Arc in the primary auditory cortex ([6]; systemic 350 mg/kg salicylate): decrease
